What was measured:
[1] = cited from earlier work
[2] = test system: Powdery Mildew (PM), Uncinula Necator; test: First year grape vine spray test (Thompson Seedless grapes); format: in vivo; details: summary of first year test
Text: The objective of this study was to test the affect of capsicum on Powdery Mildew (PM), Uncinula Necator and Downey Mildew (DM), Plasmopara Viticola and its destruction of the grape vine, leaves, flag shoots, shoots and bunches. Grape varieties are susceptible to powdery mildew and Downey mildew, Thompson's Seedless grapes was used as a test subject.
Treatment began in the beginning of the season onto fruiting bodies (Cleistothecia) and the early stage of bud growth (3 to 5 inches). Later treatment was applied again, after about 3 weeks when there was new bud growth. When the fruits were about the size of small peas, treatment is once again applied to the bunches. Treatment was also planned to be administered if symptoms of fungal infections arose.
• Kalsec brand water soluble; Code #01-050-02-01 • MasterTaste brand oil soluble; Code 500087, Lot #059618
The grape vineyard to be treated is located at 19521 American Ave., Kerman Calif.,—Thompson Seedless grapes—NW corner. (Block 5B). Vines were sprayed with standard spray equipment (bottles). The spray was applied at approximately one foot away from the plants and vines. The spray was applied at an application rate of about ½ the usual spray application from a standard tractor rig. The budding fruit was sprayed along with the leaves and new budding growth. The spray was administered from the sides only. […]

COc1cc(CNC(=O)CCCC/C=C/C(C)C)ccc1O [Capsaicin, N-vanillyl-8-methyl-6-(E)-noneamide]
solubility in alcohol ([1]; alcohol): soluble
solubility in cold water ([1]; cold water): insoluble
solubility in fats, oils and alcohol ([1]; fats, oils and alcohol): very soluble
solubility in water ([1]; water): sparingly soluble
effect on growth of mildew on grape vines [2]: hinders or kills the growth of mildew

From patent publication US20100159042A1, “CAPSICUM BASED MILDEW KILLING SOLUTION AND METHOD OF USE” (priority 2008, published 2010)
